Like-named read-outs stand apart in the source and are kept apart here.
Tests used:
STAT3 = STAT3 (Homo sapiens, UniProt P40763); experiment: pSTAT3 in pulmonary metastatic lesions, IHC and Western blotting; type: in vivo, mice; parameters: from tissue; host or cells: OS-17-luc lung metastases and OS-1 subcutaneous PDX tumours in C.B-17 scid mice; settings: 20 mg/kg LY5 daily for 30 days; immunohistochemistry and Western blotting
Protocol: The ability of LY5 to inhibit pulmonary metastases was evaluated using a murine model of OS pulmonary metastasis. 8-week-old C.B-17 scid -/- female mice (Envigo, Madison, WI) received IV inoculation with 10^6 OS-17-luc cells expressing a luciferase reporter gene. OS-17-luc cells were generated by infecting OS-17 wild type cells with lentivirus containing the firefly luciferase under a CMV promoter (Cellomics Technology, Hallethorpe, MD) and selected with 0.5 ug/mL puromycin (Thermo Fisher Scientific, Waltham, MA). Beginning 24 hrs after inoculation, mice received vehicle (n = 10) or 20 mg/kg LY5 once daily via oral gavage (n = 9, one mouse died within 24 hrs after cell inoculation). LY5 was prepared by diluting a 40 mg/mL solution/slurry with a 50% propylene glycol/1% Tween 20 in water vehicle immediately before administration. Mice were treated with LY5 for 30 days, and bioluminescent imaging (after IP luciferin administration) was performed to determine pulmonary metastatic disease load. To investigate the pharmacodynamics (PD) effects of LY5, pSTAT3 (p-Tyr705, ab76315, Abcam) and total STAT3 (ab119352, Abcam) were evaluated in pulmonary metastatic lesions using IHC in lung samples from mice euthanized 24 hrs after their last dose.
(A-B) IHC staining of lung metastasis from mice treated with LY5. The metastatic tumor sections were stained with pSTAT3 or hematoxylin and eosin. […]

[1] = biological target: T1, polo-like kinase 3 (PLK3) (Homo sapiens, UniProt Q9H4B4); experiment: KINOMESCAN binding, PLK3; settings: 5 μM LY5
T1 construct: purchased KINOMESCAN (www.kinomescan.com)
Protocol: To determine the specificity of STAT blockade, we asked whether LY5 affected the phosphorylation of other family members including STAT1, STAT2, STAT4, and STAT6 [30–32]. […] To further define any potential off-target effects, we profiled the direct (steric) or indirect (allosteric) binding of LY5 to the binding sites of 96 human protein or lipid kinases (KINOMESCAN, www.kinomescan.com).
Supplementary file pone.0181885.s001.pdf: S1 Fig Kinomescan results for LY5. […] At 5 μM LY5 (B), only interaction with PLK3 was identified, mapped S-score (35) = 0.01. (PDF) Click here for additional data file.

K7M2 cells = experiment: Sulforhodamine B cytotoxicity / cell viability assay; type: cell-based, murine; settings: Mus musculus
Protocol: Murine K7M2 and human MG63.3 OS cells were treated with increasing concentrations of LY5 for 2 hrs or 7 hrs. Western blotting was performed for pSTAT3 and STAT3 as indicated above to confirm inhibition of STAT3 phosphorylation in the cell lines prior to initiation of the PuMA assay. In addition, a sulforhodamine B colorimetric assay was performed to assess the cytotoxicity of LY5 in K7M2 and MG63.3 cells as previously described.
MG63.3 and K7M2 cell lines were exposed to increasing concentrations of LY5 to determine the IC50 (A). Western blot analysis was performed to determine the dose and duration of LY5 exposure required to inhibit STAT3 phosphorylation (B-C). Serial imaging of fluorescently labeled MG63.3 and K7M2 cells was performed in ex vivo LY5 treated lung sections (D). Metastatic burden was quantified by evaluation of the percent tumor burden (mean normalized fluorescent area). Data are reported as the mean ± standard deviation. In MG 63.3 experiment, p < 0.0001 Kruskal-Wallis test, p < 0.05 10 μM vs control at days 7, 14, and 21, 10 μM vs 1 μM at days 7, 14, and 21, 50 μM vs control at days 7, 14, and 21, and 50 μM vs 10 μM at days 7, 14, and 21 post-test Dunn. In K7M2 experiment, p < 0.0001 Kruskal-Wallis test, p < 0.05 10 μM vs control at days 14 and 21, 10 μM vs 0.1 μM at days 14 and 21, and 10 μM vs 1 μM at days 14 and 21, post-test Dunn.

[2] = PK in normal beagle dogs, IV and oral gavage; type: in vivo; settings: plasma; for bioavailability: dog, po, read-out: F (oral bioavailability)
Protocol: LY5 was evaluated in two normal purpose-bred beagle dogs (female 8.8 kg; male 11.2 kg) receiving a single dose of 1mg/kg LY5 IV then orally by gavage 7 days later to establish the PK profile and assess the spectrum of clinical toxicities associated with LY5 administration. The oral dosing was repeated in the fed and fasted state. The starting dose was determined based on allometric scaling from the maximal tolerated dose studies performed in mice. Dogs were washed out for 30 days, and then given a dose of 25 mg in a capsule orally, followed by a 50 mg capsule dose 14 days later. Full PK sampling was performed over 24 hours following each dose of LY5. The dogs received LY5 and were used for the PK analysis but were not euthanized upon conclusion of the study.
The liquid chromatography-mass spectrometry system utilized for these analyses consisted of a Dionex Ultimate 3000 RSLCnano High Performance Liquid Chromatography system and a Thermo Finnigan Quantum Ultras EMR mass spectrometer with an electrospray ionization source. Positive ionization mode was used for both LY5 and the internal standard, hesperetin. Plasma samples were collected and analyzed by the OSU James Comprehensive Cancer Center Pharmacoanalytical Shared Resource. Pharsight Phoenix WinNonlin software using non-compartmental analysis was used to generate PK parameters including maximum plasma concentration (Cmax), amount of time that drug is present at Cmax (Tmax), and total area under the curve (AUC). AUC all and AUC last were calculated by linear trapezoidal method of concentration-time curve up to the last measured point. AUC inf-obs was calculated by log-linear extrapolation of the terminal phase beyond the last collection time. Bioavailability (F) was calculated for IP and PO administration routes. Plasma stability and liver microsomal stability of LY5 were also assessed through this shared resource.

[3] = female, Dog #2, PO fed, 1.28 mg/kg, dog vomited 10 min after dosing
[4] = female, Dog #2, PO w/ fast, 0.9 mg/kg
[5] = male, Dog #1, PO fed, 1.28 mg/kg
[6] = male, Dog #1, PO w/ fast, 0.9 mg/kg

T1 sequence (Q9H4B4 whole entry): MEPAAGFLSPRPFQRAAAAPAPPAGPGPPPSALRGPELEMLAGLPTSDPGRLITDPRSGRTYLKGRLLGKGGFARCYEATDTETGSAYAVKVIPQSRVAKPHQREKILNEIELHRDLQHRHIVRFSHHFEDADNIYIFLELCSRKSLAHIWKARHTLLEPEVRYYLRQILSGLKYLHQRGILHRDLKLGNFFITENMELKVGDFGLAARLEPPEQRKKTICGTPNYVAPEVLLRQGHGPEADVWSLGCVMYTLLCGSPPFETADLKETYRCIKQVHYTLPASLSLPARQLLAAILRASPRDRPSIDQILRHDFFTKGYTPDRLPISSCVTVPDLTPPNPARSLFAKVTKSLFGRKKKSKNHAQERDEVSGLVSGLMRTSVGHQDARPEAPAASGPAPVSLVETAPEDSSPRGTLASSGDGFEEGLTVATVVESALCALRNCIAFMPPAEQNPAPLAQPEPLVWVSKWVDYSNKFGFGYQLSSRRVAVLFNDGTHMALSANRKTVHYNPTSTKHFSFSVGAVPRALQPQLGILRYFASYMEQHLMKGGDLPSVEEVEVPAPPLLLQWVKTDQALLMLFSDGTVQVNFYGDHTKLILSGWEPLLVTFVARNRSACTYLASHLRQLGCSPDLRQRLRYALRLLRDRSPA
Sequence of STAT3 (P40763 whole entry): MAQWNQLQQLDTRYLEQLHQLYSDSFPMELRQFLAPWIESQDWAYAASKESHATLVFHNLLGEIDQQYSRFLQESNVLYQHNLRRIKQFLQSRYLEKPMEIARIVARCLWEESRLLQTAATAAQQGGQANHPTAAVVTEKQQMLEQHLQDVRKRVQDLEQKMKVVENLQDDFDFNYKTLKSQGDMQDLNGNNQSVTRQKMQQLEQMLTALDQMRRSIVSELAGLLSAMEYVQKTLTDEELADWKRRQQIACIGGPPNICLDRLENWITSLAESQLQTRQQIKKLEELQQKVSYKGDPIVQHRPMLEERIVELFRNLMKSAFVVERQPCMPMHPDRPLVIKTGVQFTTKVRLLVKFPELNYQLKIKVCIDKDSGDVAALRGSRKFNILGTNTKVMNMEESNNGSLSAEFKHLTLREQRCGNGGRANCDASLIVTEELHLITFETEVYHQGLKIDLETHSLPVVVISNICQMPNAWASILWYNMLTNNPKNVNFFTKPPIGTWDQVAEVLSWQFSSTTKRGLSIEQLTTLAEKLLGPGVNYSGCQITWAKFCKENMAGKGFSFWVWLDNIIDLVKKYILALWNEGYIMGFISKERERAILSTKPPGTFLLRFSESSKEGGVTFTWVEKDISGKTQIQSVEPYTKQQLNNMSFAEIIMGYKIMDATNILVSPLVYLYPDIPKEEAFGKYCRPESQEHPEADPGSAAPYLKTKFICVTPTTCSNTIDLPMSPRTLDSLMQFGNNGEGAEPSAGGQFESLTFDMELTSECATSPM

## NS(=O)(=O)c1cccc2c1C(=O)C=C(Nc1cccnc1)C2=O [LY5, 5,8-dioxo-6-(pyridin-3-ylamino)-5,8-dihydronaphthalene-1-sulfonamide]
STAT3
  STAT3 phosphorylation in pulmonary metastatic lesions: inhibited STAT3 phosphorylation
[1]
  binding to PLK3: binding
K7M2 cells
  IC50: 1.5 µM
[2]; female, 0.9 mg/kg, Dog #2, PO w/ fast (fasted female dog)
  bioavailability: 44.3%
[2]; female, 1 mg/kg, Dog #2, PO w/ fast (fasted female dog)
  bioavailability: 44%
[2]; female, 1.28 mg/kg, Dog #2, PO fed, dog vomited 10 min after dosing
  bioavailability: 5%
[2]; female, Dog #2, IV, 0.97 mg/kg
  AUC: 3.92 µM·h
  Cmax: 3220 nM
[2]; [3]
  AUC: 0.258 µM·h
  Cmax: 60.4 nM
[2]; [4]
  AUC: 1.61 µM·h
  Cmax: 500 nM
[2]; male, 0.9 mg/kg, Dog #1, PO w/ fast (fasted male dog)
  bioavailability: 51.6%
[2]; male, 1 mg/kg, Dog #1, PO fed
  bioavailability: 14%
[2]; male, 1 mg/kg, Dog #1, PO w/ fast (fasted male dog)
  bioavailability: 52%
[2]; male, 1.28 mg/kg, Dog #1, PO fed
  bioavailability: 13.7%
[2]; male, Dog #1, IV, 0.97 mg/kg
  AUC: 5.1 µM·h
  Cmax: 5590 nM
[2]; [5]
  AUC: 0.924 µM·h
  Cmax: 206 nM
[2]; [6]
  AUC: 2.44 µM·h
  Cmax: 1280 nM
